“And” between values parts separate entries of the source, which are not always exact repeats. Identical values can stand only once. “Also recorded” adds a separate entry of the source. Like-named read-outs stand apart in the source and are kept apart here.
Columns and labels:
C. formosanus = assay: Laboratory termite test, modified ASTM 3345-74, soil/sand culture, NaOH carrier, blocks not leached; format: in vivo; design: Termite Attack Rating / Mean Rating (termite attack): scale not given here; conditions: for Mean Rating (termite attack): mean of 4 specimens; for Mean Rating (termite attack) / Termite Attack Rating: 4 weeks soil/sand culture; for Termite Attack Rating: single specimen; on Termite Attack Rating: key: Score 0: No attack; Score 1: Attempted attack; Score 2: Slight attack; Score 3: Average attack; Score 4: Strong attack
Description: A further experiment was undertaken according to the modified ASTM 3345-74 test detailed in Example 2 with the following 6 changes to the protocol:
1. The solutions tested were as follows:
2. The incubation substrate was a soil/sand mixture (1:1) to which had been added 75 ml of de-ionised water. This substrate was chosen as being more representative of the laboratory conditions under which the wild caught termites (C. formosanus) were maintained.
3. The treated timber samples were positioned on plastic mesh on top of the soil substrate. This method of placement is that used in European Standard EN 117 and is more representative of the feeding conditions of the wild caught termites maintained in the laboratory.
4. 250 termites were used in each incubation vessel.
5. The wood block specimens were not subjected to a leaching process.
6. Evidence of termite tunneling activity and mortality was determined at completion of the incubation period only (4 weeks) and no examinations were undertaken for surface activity.

Coptotermes formosanus = conditions: for Mean Rating (termite attack): mean of 4 specimens; for Mean Rating (termite attack) / Termite Attack Rating: 4 weeks sand culture; for Termite Attack Rating: single specimen;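 on Termite Attack Rating: score 0 no attack 2 slight 3 average 4 strong attack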
Source text: A laboratory test was undertaken to determine the toxic values of novel actives against termites. The active materials used were TBBA, TBBE [4,4′-ethylidenebis(2,6-dibromophenol)] [CAS RN=12639-25-3] (Sample Number 1392-82-03); TBBZ [4,4′-cyclohexylidene(2,6-dibromophenol)] [CAS RN=53350-96-2] (Sample Number 1392-72-03) and TBA, 2,2′,6-tribromo-4,4′-isopropylidenediphenol, CAS 6386-73-8 (Sample Number 1392-75-03).
The test was undertaken largely according to the strictures laid down in ASTM 3345-74 (the American standard laboratory test to assess the termite resistant properties of wood to wood destroying termites). The test method allows for the exposure of treated buried wood blocks to termites (Reticulitermes or Coptotermes spp.) over a period of 4 weeks. Efficacy of the product is determined by the extent of termite damage to the treated timber specimens through a scoring system. The test was slightly modified from the standard ASTM test by reducing the number of replicate wood specimens from 5 to 4.
Score 1: Attempted attack
The toxic values of the preservative product (in kg/m^3 of wood) fall between two values as follows:
1) The lowest concentration which protects the wood (i.e. the concentration at which none of the test specimens show a degree of attack greater than 1).
The termites employed were Coptotermes formosanus.
All wood bock specimens were of Southern Yellow Pine sapwood (Pinus spp.) with dimensions of 25.4×25.4×6.4 mm in accordance with ASTM D3345-74. All blocks were vacuum impregnated with the relevant solutions in accordance with ASTM D3345-74. Distribution of blocks in the test was as follows:
The test specimens were conditioned and subjected to a leaching schedule (after vacuum impregnation) as stipulated in ASTM D1413-76 (as recommended in ASTM D3345-74). All test specimens were then air dried for two weeks to constant weight.
The specimens were each positioned at the base of a 500 ml polyethylene culture jar (numbered according to each test specimen) and covered with 200 g of sand (pre-washed, sterilised and air conditioned in the laboratory) to which was added 25 g of de-ionised water. A further two containers containing watered sand but no timber were also prepared. All the jars were sealed (lids pre-pierced and covered with stainless steel mesh for aeration).
Two days after specimen placement, 200 termites were added to each culture jar (90% workers and 10% soldiers) and the jars re-sealed. The jars were incubated at a mean temperature and relative humidity of 27.5° C. and 75-90% for 4 weeks. The containers were provided with an artificial lighting regime of 10 hours light and 14 hours darkness.
After 1 week and 4 weeks each container was examined to determine termite mortality and normal tunneling behaviour patterns as follows:
Is there tunneling present: YES/NO
Are there any termites on the surface of the soil: YES/NO (if yes how many, i.e. 1-25% of pop, 26-50% of pop, 51-100% of pop.)
Are any dead termites visible: YES/NO (if yes how many, 1-33%, 34-66%, 67-100%)
After 4 weeks the test specimens were removed and cleaned of debris. Each block was examined and visually rated for termite damage using the scoring system detailed above.

[1] = 1 week, solution conc. 1%, ethanol carrier
[2] = 1 week, solution conc. 3%, ethanol carrier
[3] = 1 week, solution conc. 5%, ethanol carrier
[4] = 1 week, solution conc. 7%, ethanol carrier
[5] = 1 week, solution conc. 10%, ethanol carrier
[6] = 4 weeks, solution conc. 1%, ethanol carrier
[7] = 4 weeks, solution conc. 3%, ethanol carrier
[8] = 4 weeks, solution conc. 5%, ethanol carrier
[9] = 4 weeks, solution conc. 7%, ethanol carrier
[10] = 4 weeks, solution conc. 10%, ethanol carrier
[11] = solution conc. 1%, ethanol carrier
[12] = solution conc. 3%, ethanol carrier
[13] = solution conc. 5%, ethanol carrier
[14] = solution conc. 7%, ethanol carrier
[15] = solution conc. 10%, ethanol carrier

CC(C)(c1cc(Br)c(O)c(Br)c1)c1cc(Br)c(O)c(Br)c1 [TBBA, Tetrabromobisphenol A]
termiticidal and termite repellent activity (conclusion) (C. formosanus): significant termiticidal and termite repellent activity
termite survival / mortality at the end of the test period (C. formosanus; 4 weeks): the majority of the termites were still active at the end of the test period
Tunneling Activity (C. formosanus; 4 weeks, solution conc. 1%): Yes
Visible Mortality (C. formosanus; 4 weeks, solution conc. 1%): No
Tunneling Activity (C. formosanus; 4 weeks, solution conc. 3%): Yes
Visible Mortality (C. formosanus; 4 weeks, solution conc. 3%): 1-33%
Tunneling Activity (C. formosanus; 4 weeks, solution conc. 5%): Yes
Visible Mortality (C. formosanus; 4 weeks, solution conc. 5%): 1-33%
Tunneling Activity (C. formosanus; 4 weeks, solution conc. 7%): Yes
Visible Mortality (C. formosanus; 4 weeks, solution conc. 7%): 1-33%
Tunneling Activity (C. formosanus; 4 weeks, solution conc. 10%): Yes
Visible Mortality (C. formosanus; 4 weeks, solution conc. 10%): 1-33%
prevention of termite attack / restriction of termite damage (C. formosanus; all concentrations used (1-10%), 4 weeks): significant attack was prevented by all concentrations; also recorded: a very significant effect in restricting termite damage
toxic value, upper (lowest concentration which protects the wood) (C. formosanus; mean loading, solution concentration 3% (TBBF) or 1%, not leached): 7.27 kg/m^3
Mean Rating (termite attack) (C. formosanus; solution conc. 1%): 1.00
Termite Attack Rating (C. formosanus; solution conc. 1%): 1
Mean Rating (termite attack) (C. formosanus; solution conc. 3%): 1.00
Termite Attack Rating (C. formosanus; solution conc. 3%): 1
Mean Rating (termite attack) (C. formosanus; solution conc. 5%): 1.00
Termite Attack Rating (C. formosanus; solution conc. 5%): 1
Mean Rating (termite attack) (C. formosanus; solution conc. 7%): 0.75
Termite Attack Rating (C. formosanus; solution conc. 7%): 1 and 0
Mean Rating (termite attack) (C. formosanus; solution conc. 10%): 1.00
Termite Attack Rating (C. formosanus; solution conc. 10%): 1
repellent effect (soil covering of test specimens) (C. formosanus; specimens treated with 5, 7 and 10% solutions only partially soil covered): acting as a repellent throughout the trial period
Surface Activity (termites on the surface of the soil) (Coptotermes formosanus; [1]): No/No
Tunneling Activity (Coptotermes formosanus; [1]): Yes/Yes
Visible Mortality (Coptotermes formosanus; [1]): No/No
Surface Activity (termites on the surface of the soil) (Coptotermes formosanus; [2]): No/No
Tunneling Activity (Coptotermes formosanus; [2]): Yes/Yes
Visible Mortality (Coptotermes formosanus; [2]): No and No/No
Surface Activity (termites on the surface of the soil) (Coptotermes formosanus; [3]): 1-25 % (of pop.)
Tunneling Activity (Coptotermes formosanus; [3]): Yes/Yes
Surface Activity (termites on the surface of the soil) (Coptotermes formosanus; [4]): No/No
Tunneling Activity (Coptotermes formosanus; [4]): Yes/Yes
Visible Mortality (Coptotermes formosanus; [4]): No
Surface Activity (termites on the surface of the soil) (Coptotermes formosanus; [5]): No
Tunneling Activity (Coptotermes formosanus; [5]): Yes/Yes
Visible Mortality (Coptotermes formosanus; [5]): No
Surface Activity (termites on the surface of the soil) (Coptotermes formosanus; [6]): No/No
Tunneling Activity (Coptotermes formosanus; [6]): Yes/Yes
Visible Mortality (Coptotermes formosanus; [6]): No/No
Surface Activity (termites on the surface of the soil) (Coptotermes formosanus; [7]): No/No
Tunneling Activity (Coptotermes formosanus; [7]): Yes/Yes
Surface Activity (termites on the surface of the soil) (Coptotermes formosanus; [8]): No
Tunneling Activity (Coptotermes formosanus; [8]): Yes/Yes
Surface Activity (termites on the surface of the soil) (Coptotermes formosanus; [9]): No/No
Tunneling Activity (Coptotermes formosanus; [9]): Yes/Yes
Surface Activity (termites on the surface of the soil) (Coptotermes formosanus; [10]): 1-25 % (of pop.)
Tunneling Activity (Coptotermes formosanus; [10]): Yes/Yes
Visible Mortality (Coptotermes formosanus; [10]): 67-100 % (of pop.)
reduction in termite attack (Coptotermes formosanus; concentrated solutions, followed by leaching): a significant reduction in termite attack
repellent effect on termites (surface activity data) (Coptotermes formosanus; ethanol carrier): a degree of termite repellency throughout the incubation period
toxic value, lower (concentration at which the wood is no longer sufficiently protected) (Coptotermes formosanus; mean loading, solution concentration 5%, ethanol carrier, leached, 4 weeks): 32.52 kg/m^3
toxic value, upper (lowest concentration which protects the wood) (Coptotermes formosanus; mean loading, solution concentration 7%, ethanol carrier, leached, 4 weeks): 44.00 kg/m^3
Mean Rating (termite attack) (Coptotermes formosanus; [11]): 2.75
Termite Attack Rating (Coptotermes formosanus; [11]): 3 and 2 and 4
Mean Rating (termite attack) (Coptotermes formosanus; [12]): 2.25
Termite Attack Rating (Coptotermes formosanus; [12]): 2 and 3
Mean Rating (termite attack) (Coptotermes formosanus; [13]): 1.50
Termite Attack Rating (Coptotermes formosanus; [13]): 1 and 2
Mean Rating (termite attack) (Coptotermes formosanus; [14]): 1.00
Termite Attack Rating (Coptotermes formosanus; [14]): 1
Mean Rating (termite attack) (Coptotermes formosanus; [15]): 1.00
Termite Attack Rating (Coptotermes formosanus; [15]): 1

Source: US20040266885A1, “Wood preservative compositions” (priority 2001, published 2004)
